Key:
HSV-1 DNA Polymerase = HSV-1 DNA Polymerase (Human herpesvirus 1, UniProt P04293); experiment: In vitro DNA synthesis by HSV-1 DNA polymerase ([3H]dAMP incorporation); format: biochemical, Herpes simplex virus type 1; details: HSV-1 DNA polymerase
Protocol: The relative in vitro DNA synthesis by HSV-1 DNA Polymerase using dCTP or MMdCTP as the rate limiting substrate was determined. The synthesis was followed by assaying an incorporation of tritium labelled dAMP.
+ unlabelled dNTP concentration 10 μM
++ Radio labelled [^3 H]dAMP conc 0.2 μM
*One hundred percent activity represents 27355 cpm of [^3 H]dAMP
(§1) The number of pmoles of [^3 H] dAMP incorporated into control samples (`O`MMdCTP) was subtracted from pmoles of test samples. Other nucleotides,dATP, dTTP and dGTP were in excess (10 μm). Each assay was performed in triplicate.
(§2) ^+ unlabeled dNTP concentration (10 μM).
(§3) ^++ 0.2 μM of [^3 H]dATP was used in each assay.

[1] = biological target: T1, human DNA polymerase alpha (Homo sapiens, UniProt P09884); experiment: In vitro DNA synthesis by human DNA polymerase alpha ([3H]dAMP incorporation); format: biochemical; details: for incorporation into DNA / substrate: Human α-DNA polymerase
T1 sequence (P09884 1-1462): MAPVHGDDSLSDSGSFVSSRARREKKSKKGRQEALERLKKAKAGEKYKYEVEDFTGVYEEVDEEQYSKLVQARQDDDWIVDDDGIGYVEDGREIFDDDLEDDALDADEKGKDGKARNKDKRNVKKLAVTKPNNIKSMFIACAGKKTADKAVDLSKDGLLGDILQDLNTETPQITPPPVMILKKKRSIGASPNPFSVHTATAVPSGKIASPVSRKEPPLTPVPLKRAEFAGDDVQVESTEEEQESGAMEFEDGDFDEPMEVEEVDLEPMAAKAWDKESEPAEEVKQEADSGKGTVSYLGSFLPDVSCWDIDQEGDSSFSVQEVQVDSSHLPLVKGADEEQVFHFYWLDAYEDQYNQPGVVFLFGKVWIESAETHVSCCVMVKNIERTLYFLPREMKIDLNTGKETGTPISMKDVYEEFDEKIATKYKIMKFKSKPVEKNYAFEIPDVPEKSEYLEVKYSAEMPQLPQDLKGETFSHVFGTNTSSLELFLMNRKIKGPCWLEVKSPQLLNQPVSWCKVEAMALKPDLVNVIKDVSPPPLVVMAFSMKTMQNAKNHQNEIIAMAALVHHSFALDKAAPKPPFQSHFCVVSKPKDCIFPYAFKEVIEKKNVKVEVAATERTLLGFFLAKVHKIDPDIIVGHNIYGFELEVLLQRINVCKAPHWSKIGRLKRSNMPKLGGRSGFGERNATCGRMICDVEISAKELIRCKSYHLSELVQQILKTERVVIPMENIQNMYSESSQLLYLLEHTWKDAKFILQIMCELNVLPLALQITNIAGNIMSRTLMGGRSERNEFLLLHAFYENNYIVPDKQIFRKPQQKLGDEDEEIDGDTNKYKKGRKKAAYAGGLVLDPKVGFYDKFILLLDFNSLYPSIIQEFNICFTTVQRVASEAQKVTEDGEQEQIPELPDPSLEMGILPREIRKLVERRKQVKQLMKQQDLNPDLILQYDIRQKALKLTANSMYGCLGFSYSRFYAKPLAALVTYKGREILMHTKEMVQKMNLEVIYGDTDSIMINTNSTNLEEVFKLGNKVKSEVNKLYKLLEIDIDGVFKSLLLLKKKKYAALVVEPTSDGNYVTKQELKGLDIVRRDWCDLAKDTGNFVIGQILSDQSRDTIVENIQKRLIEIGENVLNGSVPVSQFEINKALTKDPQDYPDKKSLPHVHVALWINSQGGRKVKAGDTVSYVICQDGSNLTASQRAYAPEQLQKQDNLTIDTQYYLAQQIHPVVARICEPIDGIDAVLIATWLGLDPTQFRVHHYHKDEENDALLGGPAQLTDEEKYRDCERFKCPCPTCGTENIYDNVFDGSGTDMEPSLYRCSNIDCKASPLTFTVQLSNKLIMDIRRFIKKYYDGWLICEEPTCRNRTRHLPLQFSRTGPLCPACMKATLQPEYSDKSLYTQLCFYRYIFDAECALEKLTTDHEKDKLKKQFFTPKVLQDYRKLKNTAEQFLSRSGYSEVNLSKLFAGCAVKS
Protocol: A comparison of in vitro DNA synthesis by viral and cellular DNA polymerases with MMdCTP as an alternative substrate. The results are shown graphically in FIG. 14 and compare HSV-1 DNA polymerase and human DNA polymerase alpha activity.
as §1, §2, §3

E. coli DNA Polymerase 1 = E. coli DNA Polymerase 1 (Escherichia coli, UniProt P00582); experiment: In vitro DNA synthesis by E. coli DNA polymerase 1 ([3H]dAMP incorporation); format: biochemical
Protocol: ^a Enzymatic assays were carried out with 1 unit of Sigma E. coli DNA
Polymerase 1. dTTP, dGTP and [^3 H] dATP were non limiting (5 μM).
^b Values obtained are net after subtracting "0" samples which did no
^c Amount of NMeMMdCTP used with each concentration of dCTP was 0.625

[2] = test system: Nc1ccn([C@H]2C[C@H](O)[C@@H](COP(=O)(O)OP(=O)(O)OP(=O)(O)O)O2)c(=O)n1; experiment: Kinetic analysis / inhibition of HSV-1 DNA polymerase; format: biochemical; details: other: dCTP
Protocol: The inhibition of HSV-1 and human DNA polymerase alpha by MMdCTP was studied and the results shown graphically in FIG. 16. Assay conditions were specific for each enzyme and each assay was performed in triplicate.

[3] = nucleotide 0.039 μM (mixture: dCTP at this concentration + N-MeMMdCTP 0.625 μM)
[4] = nucleotide 0.078 μM (mixture: dCTP at this concentration + N-MeMMdCTP 0.625 μM)
[5] = nucleotide 0.156 μM (mixture: dCTP at this concentration + N-MeMMdCTP 0.625 μM)
[6] = nucleotide 0.312 μM (mixture: dCTP at this concentration + N-MeMMdCTP 0.625 μM)
[7] = nucleotide 0.625 μM (mixture: dCTP at this concentration + N-MeMMdCTP 0.625 μM)
[8] = nucleotide 1.25 μM (mixture: dCTP at this concentration + N-MeMMdCTP 0.625 μM)
[9] = nucleotide 2.50 μM (mixture: dCTP at this concentration + N-MeMMdCTP 0.625 μM)
[10] = nucleotide 5.0 μM (mixture: dCTP at this concentration + N-MeMMdCTP 0.625 μM)

Sequence of HSV-1 DNA Polymerase (P04293 whole entry): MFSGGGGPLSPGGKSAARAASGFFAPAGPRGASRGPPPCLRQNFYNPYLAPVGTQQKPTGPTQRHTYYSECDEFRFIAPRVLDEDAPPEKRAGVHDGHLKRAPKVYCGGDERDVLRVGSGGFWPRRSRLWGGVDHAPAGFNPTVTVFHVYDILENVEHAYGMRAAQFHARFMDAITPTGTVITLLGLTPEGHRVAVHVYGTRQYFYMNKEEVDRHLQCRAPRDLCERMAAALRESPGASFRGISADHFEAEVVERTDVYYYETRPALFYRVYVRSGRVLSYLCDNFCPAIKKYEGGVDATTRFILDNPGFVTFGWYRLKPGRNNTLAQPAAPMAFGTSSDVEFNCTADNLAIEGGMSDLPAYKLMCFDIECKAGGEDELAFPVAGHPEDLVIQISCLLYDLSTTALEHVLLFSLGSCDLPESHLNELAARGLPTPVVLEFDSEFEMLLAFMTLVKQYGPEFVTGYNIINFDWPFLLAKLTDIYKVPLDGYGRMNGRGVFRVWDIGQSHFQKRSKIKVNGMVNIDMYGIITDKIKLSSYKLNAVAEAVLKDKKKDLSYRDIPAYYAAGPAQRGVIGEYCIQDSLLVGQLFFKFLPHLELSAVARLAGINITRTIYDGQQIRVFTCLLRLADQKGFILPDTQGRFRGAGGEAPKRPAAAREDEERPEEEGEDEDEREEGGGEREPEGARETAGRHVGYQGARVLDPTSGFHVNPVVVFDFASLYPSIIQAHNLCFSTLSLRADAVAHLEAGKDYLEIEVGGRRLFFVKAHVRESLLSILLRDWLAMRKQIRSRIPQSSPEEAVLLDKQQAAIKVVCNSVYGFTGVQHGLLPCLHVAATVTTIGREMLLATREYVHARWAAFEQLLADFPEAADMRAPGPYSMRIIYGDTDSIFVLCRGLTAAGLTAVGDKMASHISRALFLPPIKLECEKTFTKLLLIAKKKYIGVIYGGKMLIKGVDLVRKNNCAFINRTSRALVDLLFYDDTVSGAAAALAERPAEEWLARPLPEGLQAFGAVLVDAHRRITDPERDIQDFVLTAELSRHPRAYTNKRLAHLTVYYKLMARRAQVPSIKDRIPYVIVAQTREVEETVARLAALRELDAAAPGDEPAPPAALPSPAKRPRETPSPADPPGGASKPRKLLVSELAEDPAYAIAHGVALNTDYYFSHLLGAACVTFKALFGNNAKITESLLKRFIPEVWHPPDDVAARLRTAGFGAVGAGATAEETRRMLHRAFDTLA
Sequence of E. coli DNA Polymerase 1 (P00582 whole entry): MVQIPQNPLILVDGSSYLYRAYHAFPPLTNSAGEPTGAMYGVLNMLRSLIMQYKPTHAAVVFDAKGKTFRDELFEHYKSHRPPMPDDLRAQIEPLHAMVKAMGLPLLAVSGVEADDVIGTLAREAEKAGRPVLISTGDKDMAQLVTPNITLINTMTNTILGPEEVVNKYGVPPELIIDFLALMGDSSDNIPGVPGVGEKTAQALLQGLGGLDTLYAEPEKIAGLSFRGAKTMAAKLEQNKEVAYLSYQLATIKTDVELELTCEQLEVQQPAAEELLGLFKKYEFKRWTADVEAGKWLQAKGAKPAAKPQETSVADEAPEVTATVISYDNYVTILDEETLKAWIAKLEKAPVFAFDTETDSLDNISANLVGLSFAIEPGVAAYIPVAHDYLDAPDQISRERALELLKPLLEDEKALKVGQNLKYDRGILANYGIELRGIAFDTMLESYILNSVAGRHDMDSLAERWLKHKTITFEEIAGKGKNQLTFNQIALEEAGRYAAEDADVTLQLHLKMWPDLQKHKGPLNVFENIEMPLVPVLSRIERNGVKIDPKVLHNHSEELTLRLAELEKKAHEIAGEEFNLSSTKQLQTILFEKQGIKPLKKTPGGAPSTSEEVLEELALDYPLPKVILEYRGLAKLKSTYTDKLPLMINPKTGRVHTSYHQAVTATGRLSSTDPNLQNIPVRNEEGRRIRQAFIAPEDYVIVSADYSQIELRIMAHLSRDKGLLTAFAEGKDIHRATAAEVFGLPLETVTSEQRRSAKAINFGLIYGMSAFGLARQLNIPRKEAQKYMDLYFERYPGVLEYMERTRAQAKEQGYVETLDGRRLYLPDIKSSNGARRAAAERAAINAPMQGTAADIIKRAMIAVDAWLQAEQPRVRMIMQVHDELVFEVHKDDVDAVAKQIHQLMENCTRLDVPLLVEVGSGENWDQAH

Row | Compound | incorporation into DNA / substrate (HSV-1 DNA Polymerase) | incorporation into DNA / substrate [1] | interference with incorporation of dCTP into DNA (E. coli DNA Polymerase 1; E. coli DNA polymerase) | substrate for DNA polymerase (E. coli DNA Polymerase 1; E. coli DNA polymerase) | cpm [^3 H]dAMP incorporated (E. coli DNA Polymerase 1; [3]) [cpm] | cpm [^3 H]dAMP incorporated (E. coli DNA Polymerase 1; [4]) [cpm] | cpm [^3 H]dAMP incorporated (E. coli DNA Polymerase 1; [5]) [cpm] | cpm [^3 H]dAMP incorporated (E. coli DNA Polymerase 1; [6]) [cpm] | cpm [^3 H]dAMP incorporated (E. coli DNA Polymerase 1; [7]) [cpm] | cpm [^3 H]dAMP incorporated (E. coli DNA Polymerase 1; [8]) [cpm] | cpm [^3 H]dAMP incorporated (E. coli DNA Polymerase 1; [9]) [cpm] | cpm [^3 H]dAMP incorporated (E. coli DNA Polymerase 1; [10]) [cpm] | [^3 H]dAMP incorporation representing 100% activity (HSV-1 DNA Polymerase; 10 μM dCTP) [cpm] | [^3 H]dAMP incorporation representing 100% activity ([1]; 10 μM dCTP, Human DNA polymerase) [cpm] | Km [2] [µM]
1 | CNc1nc(=O)n([C@H]2C[C@H](O)[C@@H](COP(=O)(O)OP(=O)(O)OP(=O)(O)O)O2)cc1COC [N-MeMMdCTP] | not incorporated into DNA | not incorporated into DNA | did not interfere with incorporation of dCTP into DNA | did not serve as a substrate | -18 | -7 | 3 | -9 | 3 | -20 | -17 | -16 | – | – | –
2 | Nc1ccn([C@H]2C[C@H](O)[C@@H](COP(=O)(O)OP(=O)(O)OP(=O)(O)O)O2)c(=O)n1 [dCTP, 2'-deoxycytidine triphosphate, reference compound] | excellent substrate for DNA synthesis | excellent substrate for DNA synthesis | – | – | 35 | 118 | 216 | 527 | 1171 | 1603 | 1554 | 2032 | 27355 | 4059 | –
3 | HSV-1 DNA Polymerase (Human alphaherpesvirus 1 strain 17) | – | – | – | – | – | – | – | – | – | – | – | – | – | – | 0.15

Source: US4990499A, “Anti-herpes simplex virus activity of 5-alkoxymethyl-2'-deoxycytidimes and their 5-monophosphates” (priority 1989, dated 1991)
